Target: T1, Renin (Rattus norvegicus) (UniProt P08424)
T1 sequence (whole entry): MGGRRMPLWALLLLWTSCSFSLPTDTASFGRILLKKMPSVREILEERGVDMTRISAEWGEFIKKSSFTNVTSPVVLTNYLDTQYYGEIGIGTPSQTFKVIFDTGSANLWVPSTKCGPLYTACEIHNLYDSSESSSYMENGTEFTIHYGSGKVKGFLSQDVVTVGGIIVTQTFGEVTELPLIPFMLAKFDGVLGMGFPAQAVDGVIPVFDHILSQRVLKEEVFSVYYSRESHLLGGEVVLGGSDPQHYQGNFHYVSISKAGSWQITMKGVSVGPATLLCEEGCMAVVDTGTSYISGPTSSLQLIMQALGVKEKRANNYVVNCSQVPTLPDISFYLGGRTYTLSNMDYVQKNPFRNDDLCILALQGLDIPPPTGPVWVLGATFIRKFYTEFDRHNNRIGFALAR
Assay: Compound was evaluated for its ability to reduce plasma renin activity; Ranges is 20-40
Assay type: functional, cell-free
Parameters: scale not given: the % may be the effect or the level left

Compound: CC(C)C[C@H]1C(=O)N2CCCC2[C@]2(C)O[C@](NC(=O)C3C=C4c5cccc6[nH]c(Br)c(c56)C[C@H]4N(C)C3)(C(C)C)C(=O)N12 (stereo partly specified)
- Activity: 20%

Source: ChEMBL document CHEMBL1121720, “Future directions in dopaminergic nervous system and dopaminergic agonists” (J Med Chem, 1981)
